Molecules are shown by their SMILES. Where two headings read alike, the source gives them in different places.

This experiment has as its system phospho-serine 2056 DNA-PK in HCT116 cells. Kind of experiment: DNA-PK phosphorylation at serine 2056 (cellular), ELISA in bleomycin-treated HCT116 cells. The class given is cell-based. Conditions: read-out: IC50 pDNA-PK. In a few lines:
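HCT116, MEM alpha + 10% FCS, 37 °C/10% CO2, seeded o/n. Cpd + 10 μM bleomycin, 6 h. ELISA, chemiluminescence; phospho/total DNA-PKcs ratio, DMSO = blank.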

Setting [1] is: cellular DNA-PK phosphorylation at serine 2056, HCT116 cells.
Setting [2] is: cellular, HCT116 cells, 10 μM bleomycin, six hours.
The mark [3] stands for this setting: Homo sapiens, HCT-116, 6 h, cellular, HCT116 cells, 10 μM bleomycin, six hours.
The mark [4] stands for this setting: Homo sapiens, HCT-116, phospho-serine 2056 DNA-PK, bleomycin-treated HCT116 cells, class symbols A-D.
Where [5] appears, read: Homo sapiens, HCT-116, cellular DNA-PK phosphorylation at serine 2056, HCT116 cells.
Where [6] appears, read: Homo sapiens, HCT-116, phospho-serine 2056 DNA-PK, bleomycin-treated HCT116 cells.

For orientation: IC50 means the concentration that gives 50% inhibition. Consider `OC(c1ccc(F)c(-c2ncnc3cc(N4CCOCC4)ccc23)c1)c1ncnc2ccoc12` (centres unmarked) [Example 471, [4-Fluoro-3-(7-morpholin-4-yl-quinazolin-4-yl)-phenyl]furo[3,2-d}-pyrimidin-4-yl-methanol], for which the half-inhibitory concentration (IC50) under setting [1] was less than 0.5 µM.

`OC(c1cc(F)c(F)c(-c2ncnc3cc(N4CCOCC4)ccc23)c1)c1nccs1` (centres unmarked) [Example 179, [3,4-Difluoro-5-(7-morpholin-4-yl-quinazolin-4-yl)-phenyl]thiazol-2-yl-methanol]: the half-inhibitory concentration (IC50) (phospho-serine 2056 DNA-PK, bleomycin-treated HCT116 cells, class symbols A-D) is 0.5 to 5 µM.

`OC(c1ccc2nccn2n1)c1cc(-c2ncnc3cc(N4CCOCC4)ccc23)c(F)cc1F` (centres unmarked) [Example 51, [2,4-Difluoro-5-(7-morpholin-4-yl-quinazolin-4-yl)phenyl]-imidazo[1,2-b]pyridazin-6-ylmethanol]: the IC50 under setting [2] was less than 0.5 µM.

As for `OC(c1ccc(F)c(-c2ncnc3cc(N4CCOCC4)ccc23)c1)c1cccnn1` (centres unmarked) [Example 65, [4-Fluoro-3-(7-morpholin-4-yl-quinazolin-4-yl)phenyl]-pyridazin-3-ylmethanol], the IC50 under setting [3] lay in the range of 0.5 to 5 µM.

For `OC(c1cn2ccnc2cn1)c1cc(-c2ncnc3cc(N4CCOCC4)ccc23)c(F)cc1F` (centres unmarked) [Example 223, [2,4-Difluoro-5-(7-morpholin-4-yl-quinazolin-4-yl)-phenyl]imidazo-[1,2-a]pyrazin-6-yl-methanol], the IC50 under setting [4] lay within 0.5 to 5 µM.

In the case of `Cn1c(C(O)c2cc(-c3ncnc4cc(N5CCOCC5)ccc34)c(F)cc2F)cccc1=O` (centres unmarked) [Example 380, 6-{[2,4-Difluoro-5-(7-morpholin-4-yl-quinazolin-4-yl)-phenyl]hydroxy-methyl}-1-methyl-1H-pyridin-2-one (Ena 2)], under setting [5], the 50% inhibitory concentration (IC50) was 0.5 to 5 µM.

With `Cc1nccnc1[C@@H](O)c1ccc(F)c(-c2ncnc3cc(N4CCOCC4)cnc23)c1` [Example 233, (S)-[4-Fluoro-3-(7-morpholin-4-yl-pyrido[3,2-d}-pyrimidin-4-yl)-phenyl]-(3-methyl-pyrazin-2-yl)-methanol], the half-inhibitory concentration (IC50) under setting [6] fell in the range of 10 to 30 µM.

With `Cn1c(C(O)c2ccc(F)c(-c3ncnc4cc(N5CCOCC5)ccc34)c2)cccc1=O` (centres unmarked) [Example 375, 6-{[4-Fluoro-3-(7-morpholin-4-yl-quinazolin-4-yl)-phenyl]hydroxy-methyl}-1-methyl-1H-pyridin-2-one (Ena 2)], under setting [5], the IC50 lay within 0.5 to 5 µM.

In the case of `NC(=O)C(c1ccc2nccn2n1)c1cc(-c2ncnc3cc(N4CCOCC4)ccc23)c(F)cc1Cl` (centres unmarked) [Example 323, 2-[2-Chloro-4-fluoro-5-(7-morpholin-4-yl-quinazolin-4-yl)-phenyl]-2-imidazo-[1,2-b]pyridazin-6-yl-acetamide], the 50% inhibitory concentration (IC50) under setting [6] lay in the range of 0.5 to 5 µM.

Regarding `OC(c1ccc(F)c(-c2ncnc3cc(N4CCOCC4)ccc23)c1)c1nccc2ccoc12` (centres unmarked) [Example 328, [4-Fluoro-3-(7-morpholin-4-yl-quinazolin-4-yl)-phenyl]furo[2,3-c]-pyridin-7-ylmethanol], the half-inhibitory concentration (IC50) under setting [6] is less than 0.5 µM.

For the compound `Cn1cnc2ncnc(C(O)c3cc(-c4ncnc5cc(N6CCOCC6)ccc45)c(F)cc3Cl)c21` (centres unmarked) [Example 423, [2-Chloro-4-fluoro-5-(7-morpholin-4-yl-quinazolin-4-yl)-phenyl]-(7-methyl-7H-purin-6-yl)-methanol], the concentration for half-maximal inhibition (IC50) under setting [1] fell in the range of 5 to 10 µM.

Take `COc1nccnc1C(C(N)=O)c1cc(-c2ncnc3cc(N4CCOCC4)cc(F)c23)c(F)cc1Cl` (centres unmarked) [Example 261, 2-[2-Chloro-4-fluoro-5-(5-fluoro-7-morpholin-4-yl-quinazolin-4-yl)-phenyl]-2-(3-methoxy-pyrazin-2-yl)acetamide]: under setting [6], the IC50 lay in the range of 0.5 to 5 µM.

Turning to `OC(c1cc(-c2ncnc3cc(N4CCOCC4)ccc23)c(F)cc1Cl)c1ncnc2ccoc12` (centres unmarked) [Example 452, [2-Chloro-4-fluoro-5-(7-morpholin-4-yl-quinazolin-4-yl)-phenyl]furo[3,2-d}-pyrimidin-4-yl-methanol], the IC50 under setting [1] is less than 0.5 µM.

Consider `NC(=O)C(c1cncc(Cl)c1)c1ccc(F)c(-c2ncnc3cc(N4CCOCC4)ccc23)c1` (centres unmarked) [Example 297, 2-(5-Chloro-pyridin-3-yl)-2-[4-fluoro-3-(7-morpholin-4-yl-quinazolin-4-yl)-phenyl]acetamide], for which the IC50 under setting [6] fell in the range of 10 to 30 µM.

For the compound `Fc1ccc(C(OC(F)F)c2nccs2)cc1-c1ncnc2cc(N3CCOCC3)ccc12` (centres unmarked) [Example 199, 4-[5-(Difluoro-methoxy-thiazol-2-ylmethyl)-2-fluoro-phenyl]-7-morpholin-4-yl-quinazoline], under setting [4], the IC50 was 10 to 30 µM.

As for `Cc1nccnc1C(C(N)=O)c1cc(-c2ncnc3cc(N4CCOCC4)ccc23)c(F)cc1F` (centres unmarked) [Example 329, 2-[2,4-Difluoro-5-(7-morpholin-4-yl-quinazolin-4-yl)-phenyl]-2-(3-methyl-pyrazin-2-yl)-acetamide], under setting [6], the IC50 is 5 to 10 µM.

For the compound `C#CC(O)(c1ccc(OC)nn1)c1cc(-c2ncnc3cc(N4CCOCC4)ccc23)c(F)cc1Cl` (centres unmarked) [Example 122, 1-[2-Chloro-4-fluoro-5-(7-morpholin-4-yl-quinazolin-4-yl)-phenyl]-1-(6-methoxy-pyridazin-3-yl)-prop-2-yn-1-ol], the IC50 under setting [4] was 0.5 to 5 µM.

With `Cc1cncnc1C(C(N)=O)c1cc(-c2ncnc3cc(N4CCOCC4)ccc23)ccc1Cl` (centres unmarked) [Example 407, 2-[2-Chloro-5-(7-morpholin-4-yl-quinazolin-4-yl)-phenyl]-2-(5-methyl-pyrimidin-4-yl)-acetamide], the half-inhibitory concentration (IC50) under setting [1] fell in the range of 0.5 to 5 µM.

For the compound `OC(c1cc(-c2ncnc3cc(N4CCOCC4)ccc23)c(F)cc1F)c1nccnc1OC(F)F` (centres unmarked) [Example 451, (3-Difluoromethoxy-pyrazin-2-yl)-[2,4-difluoro-5-(7-morpholin-4-yl-quinazolin-4-yl)-phenyl]methanol], under setting [1], the IC50 was in the range of 0.5 to 5 µM.

Regarding `OC(c1ccc(F)c(-c2ncnc3cc(N4CCOCC4)ccc23)c1)c1nnc2ccccn12` (centres unmarked) [Example 399, [4-Fluoro-3-(7-morpholin-4-yl-quinazolin-4-yl)-phenyl]-[1,2,4]-triazolo[4,3-a]pyridin-3-ylmethanol], the half-maximal inhibitory concentration (IC50) under setting [5] fell in the range of 0.5 to 5 µM.

With `OC(c1ccc(F)c(-c2ncnc3cc(N4CCOCC4)ccc23)c1)c1nccnc1OC(F)F` (centres unmarked) [Example 464, (3-Difluoromethoxy-pyrazin-2-yl)-[4-fluoro-3-(7-morpholin-4-yl-quinazolin-4-yl)-phenyl]methanol], the concentration for half-maximal inhibition (IC50) under setting [1] fell in the range of 0.5 to 5 µM.

Consider `O=c1[nH]ccnc1C(O)c1ccc(F)c(-c2ncnc3cc(N4CCOCC4)ccc23)c1` (centres unmarked) [Example 5, 3-{[4-Fluoro-3-(7-morpholin-4-yl-quinazolin-4-yl)phenyl]-hydroxymethyl}-1H-pyrazin-2-one], for which the concentration for half-maximal inhibition (IC50) under setting [3] lay in the range of 10 to 30 µM.

As for `OC(c1ccc(F)c(-c2ncnc3cc(N4CCOCC4)ccc23)c1)c1nccnc1C(F)(F)F` (centres unmarked) [Example 476, [4-Fluoro-3-(7-morpholin-4-yl-quinazolin-4-yl)-phenyl]-(3-trifluoro-methylpyrazin-2-yl)-methanol], the half-inhibitory concentration (IC50) under setting [5] was less than 0.5 µM.

On to `Cc1cc(C(C(N)=O)c2cc(-c3ncnc4cc(N5CCOCC5)ccc34)c(F)cc2Cl)n(C)c(=O)c1` (centres unmarked) [Example 334, 2-[2-Chloro-4-fluoro-5-(7-morpholin-4-yl-quinazolin-4-yl)-phenyl]-2-(1,4-dimethyl-6-oxo-1,6-dihydropyridin-2-yl)-acetamide], for which the half-maximal inhibitory concentration (IC50) under setting [6] fell in the range of 10 to 30 µM.

Take `COc1cnc(C(O)c2ccc(F)c(-c3ncnc4cc(N5CCOCC5)ccc34)c2)nc1` (centres unmarked) [Example 66, [4-Fluoro-3-(7-morpholin-4-yl-quinazolin-4-yl)phenyl]-(5-methoxypyrimidin-2-yl)methanol]: the IC50 under setting [3] was in the range of 10 to 30 µM.

Regarding `OC(c1cc(-c2ncnc3cc(N4CCOCC4)ccc23)c(F)cc1Cl)c1nccnc1Cl` (centres unmarked) [Example 64, [2-Chloro-4-fluoro-5-(7-morpholin-4-yl-quinazolin-4-yl)phenyl]-(3-chloropyrazin-2-yl)-methanol], the concentration for half-maximal inhibition (IC50) under setting [3] is less than 0.5 µM.

For the compound `OC(c1ccn2nccc2n1)c1cc(-c2ncnc3cc(N4CCOCC4)ccc23)c(F)cc1Cl` (centres unmarked) [Example 39, [2-Chloro-4-fluoro-5-(7-morpholin-4-yl-quinazolin-4-yl)phenyl]-pyrazolo[1,5-a]-pyrimidin-5-ylmethanol], under setting [3], the IC50 is less than 0.5 µM.

`[2H]c1c(N2CCOCC2)cc2ncnc(-c3cc(C(O)c4nccnc4C)ccc3F)c2c1[2H]` (centres unmarked) [Example 226, [3-(5,6-Dideuterio-7-morpholino-quinazolin-4-yl)-4-fluorophenyl]-(3-methylpyrazin-2-yl)-methanol]: the IC50 under setting [6] is less than 0.5 µM.

As to `COc1ccc([C@H](O)c2ccc(F)c(-c3ncnc4cc(N5CCOCC5)ccc34)c2)nn1` [Example 71, (R)-[4-Fluoro-3-(7-morpholin-4-yl-quinazolin-4-yl)phenyl]-(6-methoxypyridazin-3-yl)methanol], the 50% inhibitory concentration (IC50) under setting [3] is 0.5 to 5 µM.

For `OC(c1cccnn1)c1cc(-c2ncnc3cc(N4CCOCC4)ccc23)c(F)cc1Cl` (centres unmarked) [Example 47, [2-Chloro-4-fluoro-5-(7-morpholin-4-yl-quinazolin-4-yl)phenyl]-pyridazin-3-ylmethanol], the 50% inhibitory concentration (IC50) under setting [2] was less than 0.5 µM.

As for `OC(c1cn2ccsc2n1)c1cc(-c2ncnc3cc(N4CCOCC4)ccc23)c(F)cc1F` (centres unmarked) [Example 474, [2,4-Difluoro-5-(7-morpholin-4-yl-quinazolin-4-yl)-phenyl]imidazo-[2,1-b]thiazol-6-yl-methanol], the half-inhibitory concentration (IC50) under setting [5] is 10 to 30 µM.

With `OC(c1ccc(F)c(-c2ncnc3cc(N4CCOCC4)ccc23)c1)c1nccn2cccc12` (centres unmarked) [Example 356, [4-Fluoro-3-(7-morpholin-4-yl-quinazolin-4-yl)-phenyl]pyrrolo[1,2-a]-pyrazin-1-ylmethanol], the IC50 under setting [6] is less than 0.5 µM.

The values above are taken from patent publication US11065253B2, “Arylquinazolines” (Merck Patent GmbH, priority 2013, dated 2021).
